Series [1] in a line: Shelf stability of indocyanine green dissolved in water-free organic solvent. To be noted: absence of water, room temperature. In kind it is physicochemical. The source says: Through experimentation, it has been determined that the biggest cause of instability within ICG solutions to be nothing other than water and the second most recognizable factor is temperature. Therefore, with the instability factors identified the present invention identifies by way of experimentation with other solutions within which ICG is stable. An embodiment of the present invention utilizes organic liquids to create shelf stable ICG solutions. The present invention is a method of creating a shelf-stable, liquid, indocyanine green solution.
More importantly, the type of organic solvent selected is not the important factor for stability—only the absence of water is required.
When creating the solution, the manufacturing method is to add the ICG to the solvent(s) and stir until it dissolves. Thereafter the solution is loading in an airtight sealed container, thereby preventing the introduction of ambient air, which may contain water vapor, into the container.

For series [2] the following is noted: after mixing with water; cited from earlier work.

Results on one compound are retold here after patent US20230310660A1, “SHELF-STABLE INDOCYANINE GREEN SOLUTIONS AND METHODS OF MAKING THE SAME” (CAO Group, Inc., priority 2020, published 2023).

On to `CC1(C)C(/C=C/C=C/C=C/C=C2\N(CCCCS(=O)(=O)O)c3ccc4ccccc4c3C2(C)C)=[N+](CCCCS(=O)(=O)[O-])c2ccc3ccccc3c21` [indocyanine green], for which the “shelf stable (shelf life of solution)” value is listed as “up to 1 year” in series [1] and “up to one” in series [1] (listed as ICG). For the same compound, the “shelf life of ICG solutions (unstable)” value in series [2] was “a few days”.
